In patent US8129399B2, “Aminopyrimidines useful as kinase inhibitors” (Vertex Pharmaceuticals Incorporated, priority 2005, dated 2012):
Read-outs that look alike come from different tables or passages of the source.

Columns and labels:
Colo205 cells = experiment: Colo205 cell proliferation, 3H thymidine incorporation; format: cell-based; conditions: Homo sapiens
Procedure: Colo205 cells were seeded in 96 well plates and serially diluted compound was added to the wells in duplicate. Control groups included untreated cells, the compound diluent (0.1% DMSO alone) and culture medium without cells.
To measure proliferation, 3 h prior to the end of the experiment 0.5 μCi of 3H thymidine was added to each well. Cells were then harvested and the incorporated radioactivity counted on a Wallac microplate beta-counter. Cell viability was assessed using Promega CellTiter 96AQ to measure MTS conversion. Dose response curves were calculated using either Prism 3.0 (GraphPad) or SoftMax Pro 4.3.1 LS (Molecular Devices) software.

Aurora-1 (Aurora B) = Aurora-1 (Aurora B) (Homo sapiens, UniProt Q96GD4); experiment: Aurora-1 (Aurora B) inhibition assay (radiometric); format: biochemical; conditions: 800 μM ATP; read-out: Aurora B Ki
Chain of Aurora-1 (Aurora B) (Q96GD4 whole entry): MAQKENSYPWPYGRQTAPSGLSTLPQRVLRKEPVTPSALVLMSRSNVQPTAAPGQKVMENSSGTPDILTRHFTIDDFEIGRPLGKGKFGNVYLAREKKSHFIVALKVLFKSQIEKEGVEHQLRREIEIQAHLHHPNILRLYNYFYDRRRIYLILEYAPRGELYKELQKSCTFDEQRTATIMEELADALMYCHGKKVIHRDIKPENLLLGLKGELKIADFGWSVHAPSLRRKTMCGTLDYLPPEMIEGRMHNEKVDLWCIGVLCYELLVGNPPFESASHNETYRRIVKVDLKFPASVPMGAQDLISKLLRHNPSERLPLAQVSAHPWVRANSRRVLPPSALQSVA
Procedure: An assay buffer solution was prepared which consisted of 25 mM HEPES (pH 7.5), 10 mM MgCl2, 0.1% BSA and 10% glycerol. […] To 22 μL of the Aurora-B solution, in a 96-well plate, was added 2 μl of a compound stock solution in DMSO and the mixture allowed to equilibrate for 10 minutes at 25° C. The enzyme reaction was initiated by the addition of 16 μl stock [γ-^33P]-ATP solution (˜20 nCi/μL) prepared in assay buffer, to a final assay concentration of 800 μM. The reaction was stopped after 3 hours by the addition of 16 μL 500 mM phosphoric acid and the levels of ^33P incorporation into the peptide substrate were determined by the following method.
A phosphocellulose 96-well plate (Millipore, Cat no. MAPHNOB50) was pre-treated with 100 μL of a 100 mM phosphoric acid prior to the addition of the enzyme reaction mixture (40 μL). The solution was left to soak on to the phosphocellulose membrane for 30 minutes and the plate subsequently washed four times with 200 μL of a 100 mM phosphoric acid. […] Levels of non-enzyme catalyzed background radioactivity were determined by adding 16 μL of the 500 mM phosphoric acid to control wells, containing all assay components (which acts to denature the enzyme), prior to the addition of the [γ-^33P]-ATP solution. Levels of enzyme catalyzed ^33P incorporation were calculated by subtracting mean background counts from those measured at each inhibitor concentration. […] Ki values were calculated from initial rate data by non-linear regression using the Prism software package (Prism 3.0, Graphpad Software, San Diego, Calif.).

Aurora-2 (Aurora A) = biological target: T1, Aurora-2 (Aurora A) (Homo sapiens, UniProt O14965); experiment: Aurora-2 (Aurora A) inhibition assay, coupled enzyme; format: biochemical
T1 sequence (O14965 1-403): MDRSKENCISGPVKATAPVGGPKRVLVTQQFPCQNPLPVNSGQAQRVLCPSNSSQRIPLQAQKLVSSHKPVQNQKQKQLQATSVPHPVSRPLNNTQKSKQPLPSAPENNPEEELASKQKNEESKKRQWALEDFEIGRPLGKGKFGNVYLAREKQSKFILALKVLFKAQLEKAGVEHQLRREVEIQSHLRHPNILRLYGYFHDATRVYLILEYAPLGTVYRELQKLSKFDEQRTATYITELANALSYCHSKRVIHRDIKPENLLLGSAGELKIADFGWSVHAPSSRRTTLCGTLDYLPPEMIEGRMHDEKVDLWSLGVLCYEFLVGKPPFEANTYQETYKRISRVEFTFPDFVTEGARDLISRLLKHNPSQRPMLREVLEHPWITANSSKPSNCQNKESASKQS
Procedure: Assays were carried out in a mixture of 100 mM Hepes (pH7.5), 10 mM MgCl2, 1 mM DTT, 25 mM NaCl, 2.5 mM phosphoenolpyruvate, 300 μM NADH, 30 μg/ml pyruvate kinase and 10 μg/ml lactate dehydrogenase. […] Assays were carried out at 30° C. and in the presence of 40 nM Aurora-2.
An assay stock buffer solution was prepared containing all of the reagents listed above, with the exception of Aurora-2 and the test compound of interest. […] The plate was preincubated for 10 minutes at 30° C. and the reaction initiated by addition of 10 μl of Aurora-2. Initial reaction rates were determined with a Molecular Devices SpectraMax Plus plate reader over a 10 minute time course. IC50 and Ki data were calculated from non-linear regression analysis using the Prism software package (GraphPad Prism version 3.0cx for Macintosh, GraphPad Software, San Diego Calif., USA).

[1] = biological target: N-terminally truncated (Δ 27) Abl kinase (Homo sapiens, UniProt P00519); experiment: Abl kinase activity inhibition assay, coupled enzyme; format: biochemical
Chain of N-terminally truncated (Δ 27) Abl kinase (P00519 28-1130 limits assumed, stated change not applied): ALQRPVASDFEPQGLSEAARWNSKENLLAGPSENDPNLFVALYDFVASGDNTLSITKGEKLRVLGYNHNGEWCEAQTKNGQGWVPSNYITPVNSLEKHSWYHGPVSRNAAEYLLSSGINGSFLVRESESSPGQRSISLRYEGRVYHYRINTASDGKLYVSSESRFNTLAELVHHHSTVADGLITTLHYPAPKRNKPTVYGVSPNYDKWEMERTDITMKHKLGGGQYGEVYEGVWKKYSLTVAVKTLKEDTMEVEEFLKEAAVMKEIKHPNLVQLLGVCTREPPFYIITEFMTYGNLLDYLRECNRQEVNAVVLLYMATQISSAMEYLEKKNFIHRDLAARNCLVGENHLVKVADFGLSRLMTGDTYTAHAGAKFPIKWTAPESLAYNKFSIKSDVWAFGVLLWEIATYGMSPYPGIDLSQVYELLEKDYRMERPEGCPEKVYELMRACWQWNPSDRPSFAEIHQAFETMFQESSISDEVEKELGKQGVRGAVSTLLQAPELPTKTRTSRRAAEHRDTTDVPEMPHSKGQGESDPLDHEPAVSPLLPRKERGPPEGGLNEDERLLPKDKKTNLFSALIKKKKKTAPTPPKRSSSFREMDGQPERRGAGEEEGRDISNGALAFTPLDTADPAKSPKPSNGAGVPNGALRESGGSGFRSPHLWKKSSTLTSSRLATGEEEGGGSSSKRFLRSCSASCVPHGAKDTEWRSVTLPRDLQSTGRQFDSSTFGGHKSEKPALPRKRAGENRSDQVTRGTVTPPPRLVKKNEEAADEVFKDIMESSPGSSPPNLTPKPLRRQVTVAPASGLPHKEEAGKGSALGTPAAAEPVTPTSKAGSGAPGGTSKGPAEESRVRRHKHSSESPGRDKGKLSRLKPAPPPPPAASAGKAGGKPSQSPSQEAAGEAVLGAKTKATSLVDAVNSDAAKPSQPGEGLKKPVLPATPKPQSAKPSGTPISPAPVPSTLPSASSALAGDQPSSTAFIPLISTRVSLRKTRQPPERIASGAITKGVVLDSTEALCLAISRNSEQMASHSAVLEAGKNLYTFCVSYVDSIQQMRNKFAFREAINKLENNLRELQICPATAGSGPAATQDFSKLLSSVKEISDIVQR
Procedure: Reactions were carried out in a solution containing 100 mM HEPES (pH 7.5), 10 mM MgCl2, 25 mM NaCl, 300 μM NADH, 1 mM DTT and 3% DMSO. […] Final concentrations of the components of the coupled enzyme system were 2.5 mM phosphoenolpyruvate, 200 μM NADH, 60 μg/ml pyruvate kinase and 20 μg/ml lactate dehydrogenase.
An assay stock buffer solution was prepared containing all of the reagents listed above with the exception of ATP and the test compound of interest. […] Rates of reaction were obtained using a Molecular Devices Spectramax plate reader (Sunnyvale, Calif.) over 10 min at 30° C. The Ki values were determined from the residual rate data as a function of inhibitor concentration using nonlinear regression (Prism 3.0, Graphpad Software, San Diego, Calif.).

Arg (Abl-2) = Arg (Abl-2) (Homo sapiens, UniProt P42684); experiment: Arg (Abl-2) inhibition screen; format: biochemical; conditions: Table 5; ATP at or close to Km
Chain of Arg (Abl-2) (P42684 whole entry, species assumed): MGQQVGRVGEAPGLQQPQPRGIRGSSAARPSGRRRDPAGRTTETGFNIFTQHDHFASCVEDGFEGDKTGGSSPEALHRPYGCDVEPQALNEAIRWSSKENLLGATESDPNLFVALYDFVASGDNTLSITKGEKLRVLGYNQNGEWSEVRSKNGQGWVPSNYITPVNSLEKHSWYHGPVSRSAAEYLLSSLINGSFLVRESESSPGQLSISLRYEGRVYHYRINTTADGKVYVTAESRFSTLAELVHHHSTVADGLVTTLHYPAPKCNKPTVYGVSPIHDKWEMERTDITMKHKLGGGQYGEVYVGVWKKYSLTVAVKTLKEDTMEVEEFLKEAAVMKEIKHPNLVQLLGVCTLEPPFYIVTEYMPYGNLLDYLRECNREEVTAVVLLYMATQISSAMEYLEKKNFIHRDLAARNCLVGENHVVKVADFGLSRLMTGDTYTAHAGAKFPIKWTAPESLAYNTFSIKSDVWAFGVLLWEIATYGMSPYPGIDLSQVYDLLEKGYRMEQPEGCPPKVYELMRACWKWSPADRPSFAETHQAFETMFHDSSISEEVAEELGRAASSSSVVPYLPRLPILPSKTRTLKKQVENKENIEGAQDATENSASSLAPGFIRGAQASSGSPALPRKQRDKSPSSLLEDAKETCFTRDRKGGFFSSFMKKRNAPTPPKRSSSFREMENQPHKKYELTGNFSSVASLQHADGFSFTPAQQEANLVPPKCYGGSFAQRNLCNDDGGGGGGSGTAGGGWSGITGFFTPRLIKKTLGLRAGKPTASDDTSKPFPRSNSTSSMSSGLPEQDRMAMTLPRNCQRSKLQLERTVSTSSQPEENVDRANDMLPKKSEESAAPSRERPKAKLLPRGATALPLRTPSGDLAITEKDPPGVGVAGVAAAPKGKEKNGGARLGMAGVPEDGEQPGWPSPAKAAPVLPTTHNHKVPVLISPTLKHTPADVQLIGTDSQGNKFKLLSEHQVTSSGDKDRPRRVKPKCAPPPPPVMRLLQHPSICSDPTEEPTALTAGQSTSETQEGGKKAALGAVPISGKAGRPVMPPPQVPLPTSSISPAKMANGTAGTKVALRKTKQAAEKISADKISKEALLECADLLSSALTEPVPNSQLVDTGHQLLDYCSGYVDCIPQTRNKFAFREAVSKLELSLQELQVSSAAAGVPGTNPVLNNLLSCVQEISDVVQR
Text: (§1) Compound(s) were screened for their ability to inhibit Arg (Abl-2), FGFR1, MLK1, Tie2, and TrkA using screening methods known to one of ordinary skill in the art. All of the above enzymes were screened with ATP concentrations at or close to the Km for ATP.

FGFR1 = FGFR1 (Homo sapiens, UniProt P11362); experiment: FGFR1 inhibition screen; format: biochemical; conditions: Table 5; ATP at or close to Km
Chain of FGFR1 (P11362 22-822, species assumed): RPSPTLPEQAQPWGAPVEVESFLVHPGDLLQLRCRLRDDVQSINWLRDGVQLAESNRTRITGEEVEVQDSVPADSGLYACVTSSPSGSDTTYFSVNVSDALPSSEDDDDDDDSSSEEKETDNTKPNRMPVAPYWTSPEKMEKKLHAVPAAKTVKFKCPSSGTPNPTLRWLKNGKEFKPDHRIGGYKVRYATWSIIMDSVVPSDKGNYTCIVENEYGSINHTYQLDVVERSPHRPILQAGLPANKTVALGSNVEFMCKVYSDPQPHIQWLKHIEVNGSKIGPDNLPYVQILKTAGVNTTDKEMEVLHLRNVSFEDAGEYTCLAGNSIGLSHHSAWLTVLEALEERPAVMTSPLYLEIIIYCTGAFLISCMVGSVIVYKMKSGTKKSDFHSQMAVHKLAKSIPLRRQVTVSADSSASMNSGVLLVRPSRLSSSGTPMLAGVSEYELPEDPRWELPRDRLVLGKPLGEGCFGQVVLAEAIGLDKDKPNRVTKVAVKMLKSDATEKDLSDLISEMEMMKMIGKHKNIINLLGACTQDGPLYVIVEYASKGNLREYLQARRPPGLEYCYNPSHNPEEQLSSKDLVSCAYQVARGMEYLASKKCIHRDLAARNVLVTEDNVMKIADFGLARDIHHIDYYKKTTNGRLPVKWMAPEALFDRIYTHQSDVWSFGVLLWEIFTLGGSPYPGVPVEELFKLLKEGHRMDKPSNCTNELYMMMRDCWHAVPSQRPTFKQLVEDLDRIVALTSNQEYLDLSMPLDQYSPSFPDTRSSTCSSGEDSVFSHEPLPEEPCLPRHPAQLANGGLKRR
Text: as §1

[2] = COLO 205, read-out: Colo205 inh 3H-Thy incorporation after 96 hours IC50 (uM)
[3] = 400 μM ATP, 40 nM Aurora-2, read-out: Aurora A Ki
[4] = COLO 205, read-out: Colo205 inh 3H-Thy incorporation after 72 hours IC50 (uM)

## CCC(=O)Nc1ccc(Sc2nc(Nc3cc(C)n[nH]3)cc(N3CC(O)(CC(C)(C)C)C3)n2)cc1 [Compound I-1]
Colo205 cells; [2]
  IC50: 0.047 µM
Aurora-1 (Aurora B)
  Ki: 7 nM
Aurora-2 (Aurora A)
  Ki: 0.4 nM

## CCC(=O)Nc1ccc(Sc2nc(Nc3cc(C)n[nH]3)cc(N3CC(O)(CC)C3)n2)cc1 [Compound I-4]
Colo205 cells; COLO 205, Colo205 cells, 96 hours, read-out: Colo205 inh 3H-Thy incorporation after 96 hours IC50
  IC50: 0.092 µM
Aurora-1 (Aurora B)
  Ki: 15 nM
Aurora-2 (Aurora A); [3]
  Ki: 1.7 nM

## Cc1cc(Nc2cc(N3CC(F)(C4CC4)C3)nc(Sc3ccc(NC(=O)C4(C(F)(F)F)CC4)cc3)n2)[nH]n1 [Compound I-15]
Colo205 cells; [4]
  IC50: 0.026 µM
Aurora-1 (Aurora B)
  Ki: 9.6 nM
[1]
  Ki: 57 nM
Aurora-2 (Aurora A); [3]
  Ki: 0.4 nM

## CCC(=O)Nc1ccc(Sc2nc(Nc3cc(C)[nH]n3)cc(N3CC(F)(C4CC4)C3)n2)cc1 [Compound I-16]
Colo205 cells; [4]
  IC50: 0.051 µM
Aurora-1 (Aurora B)
  Ki: 24 nM
[1]
  Ki: 170 nM
Aurora-2 (Aurora A); [3]
  Ki: 1 nM

## Cc1cc(Nc2cc(N3CC(F)(C4CC4)C3)nc(Sc3ccc(NC(=O)CCC(F)(F)F)cc3)n2)[nH]n1 [Compound I-17]
Colo205 cells; [4]
  IC50: 0.026 µM
Colo205 cells; [2]
  IC50: 0.019 µM
Aurora-1 (Aurora B)
  Ki: 12 nM
[1]
  Ki: 22 nM
Arg (Abl-2)
  IC50: 210 nM
FGFR1
  IC50: 88 nM
Aurora-2 (Aurora A); [3]
  Ki: 0.62 nM
